≈ marks a conversion by molar mass, not a printed value. Calls of active or inactive are those of the source. No cut-off for these calls is given here.
What was measured:
[1] = tested on: Enterococcus faecalis; test: Antibacterial activity against Enterococcus faecalis MTCC 3382 after 24 hr by disk diffusion method; type: functional; conditions: for MIC: Enterococcus faecalis, MTCC 3382, 24 h
[2] = tested on: Escherichia coli; test: Induction of Escherichia coli MTCC 1089 DNA cleavage at 50 ug after 2 hr by agarose gel electrophoresis
[3] = tested on: Staphylococcus aureus; test: Antibacterial activity against Staphylococcus aureus MTCC 3160 after 24 hr by disk diffusion method; type: functional; conditions: for MIC: Staphylococcus aureus, MTCC 3160, 24 h
[4] = tested on: Mucor fuscus; test: Antifungal activity against Mucor fuscus after 3 to 4 days by serial dilution method; type: functional; conditions: for MIC: Mucor fuscus
[5] = tested on: Fusarium oxysporum; test: Antifungal activity against Fusarium oxysporum after 3 to 4 days by serial dilution method; type: functional; conditions: for MIC: Fusarium oxysporum
[6] = tested on: Escherichia coli; test: Antibacterial activity against Escherichia coli MTCC 1089 after 24 hr by disk diffusion method; type: functional; conditions: for MIC: Escherichia coli, MTCC 1089, 24 h
[7] = tested on: Bacillus subtilis; test: Antibacterial activity against Bacillus subtilis MTCC 297 after 24 hr by disk diffusion method; type: functional; conditions: for MIC: Bacillus subtilis, MTCC 297, 24 h
[8] = tested on: Aspergillus niger; test: Antifungal activity against Aspergillus niger after 3 to 4 days by serial dilution method; type: functional; conditions: for MIC: Aspergillus niger
[9] = tested on: Staphylococcus aureus; test: Induction of Staphylococcus aureus MTCC 3160 DNA cleavage at 50 ug after 2 hr by agarose gel electrophoresis
[10] = tested on: Klebsiella pneumoniae; test: Antibacterial activity against Klebsiella pneumoniae MTCC 3384 after 24 hr by disk diffusion method; type: functional; conditions: for MIC: Klebsiella pneumoniae, MTCC 3384, 24 h
[11] = tested on: Pseudomonas aeruginosa; test: Antibacterial activity against Pseudomonas aeruginosa MTCC 1034 after 24 hr by disk diffusion method; type: functional; conditions: for MIC: Pseudomonas aeruginosa, MTCC 1034, 24 h
[12] = tested on: Penicillium chrysogenum; test: Antifungal activity against Penicillium chrysogenum after 3 to 4 days by serial dilution method; type: functional; conditions: for MIC: Penicillium chrysogenum
[13] = tested on: Aspergillus niger; test: Induction of Aspergillus niger DNA cleavage at 50 ug after 2 hr by agarose gel electrophoresis
[14] = tested on: Aspergillus fumigatus; test: Antifungal activity against Aspergillus fumigatus after 3 to 4 days by serial dilution method; type: functional; conditions: for MIC: Aspergillus fumigatus
[15] = tested on: Candida albicans; test: Antifungal activity against Candida albicans after 3 to 4 days by serial dilution method; type: functional; conditions: for MIC: Candida albicans

| Compound | inhibition zone (IZ) [1] | MIC [1] | Activity [2] | inhibition zone (IZ) [3] | MIC [3] | inhibition zone (IZ) [4] | MIC [4] | MIC [5] | MIC [6] | inhibition zone (IZ) [7] | MIC [7] | inhibition zone (IZ) [8] | MIC [8] | Activity [9] | inhibition zone (IZ) [10] | MIC [10] | inhibition zone (IZ) [11] | MIC [11] | inhibition zone (IZ) [12] | MIC [12] | other results |
| --- | --- | --- | --- | --- | --- | --- | --- | --- | --- | --- | --- | --- | --- | --- | --- | --- | --- | --- | --- | --- | --- |
| O=c1cc(COc2cccc(OCc3cc(=O)oc4ccc(Br)cc34)c2)c2cc(Br)ccc2o1 | 19 mm | 6.25 µg/mL (≈ 10.7 µM) | Active | 17 mm | 6.25 µg/mL (≈ 10.7 µM) | 18 mm | 12.5 µg/mL (≈ 21.4 µM) | 25 µg/mL (≈ 42.8 µM) | 12.5 µg/mL (≈ 21.4 µM) | 16 mm | 6.25 µg/mL (≈ 10.7 µM) | 19 mm | 6.25 µg/mL (≈ 10.7 µM) | Active | 17 mm | 6.25 µg/mL (≈ 10.7 µM) | 21 mm | 6.25 µg/mL (≈ 10.7 µM) | 18 mm | 12.5 µg/mL (≈ 21.4 µM) | inhibition zone (IZ) [5]: 13 mm; inhibition zone (IZ) [6]: 14 mm; Activity [13]: Active; inhibition zone (IZ) [14]: 18 mm; MIC [14]: 12.5 µg/mL (≈ 21.4 µM); inhibition zone (IZ) [15]: 17 mm; MIC [15]: 6.25 µg/mL (≈ 10.7 µM) |
| O=c1cc(COc2cccc(OCc3cc(=O)oc4c3ccc3ccccc34)c2)c2ccc3ccccc3c2o1 | 12 mm | 25 µg/mL (≈ 47.5 µM) | inactive | 11 mm | 25 µg/mL (≈ 47.5 µM) | 14 mm | 25 µg/mL (≈ 47.5 µM) | 25 µg/mL (≈ 47.5 µM) | 25 µg/mL (≈ 47.5 µM) | 11 mm | 25 µg/mL (≈ 47.5 µM) | 15 mm | 12.5 µg/mL (≈ 23.7 µM) | inactive | 16 mm | 6.25 µg/mL (≈ 11.9 µM) | 17 mm | 12.5 µg/mL (≈ 23.7 µM) | 14 mm | 25 µg/mL (≈ 47.5 µM) | inhibition zone (IZ) [5]: 14 mm; inhibition zone (IZ) [6]: 12 mm; Activity [13]: inactive; inhibition zone (IZ) [14]: 15 mm; MIC [14]: 12.5 µg/mL (≈ 23.7 µM); inhibition zone (IZ) [15]: 13 mm; MIC [15]: 12.5 µg/mL (≈ 23.7 µM) |
| O=c1cc(COc2cccc(OCc3cc(=O)oc4ccc5ccccc5c34)c2)c2c(ccc3ccccc32)o1 | 11 mm | 25 µg/mL (≈ 47.5 µM) | inactive | 12 mm | 25 µg/mL (≈ 47.5 µM) | 15 mm | 25 µg/mL (≈ 47.5 µM) | 25 µg/mL (≈ 47.5 µM) | 25 µg/mL (≈ 47.5 µM) | 12 mm | 25 µg/mL (≈ 47.5 µM) | 16 mm | 12.5 µg/mL (≈ 23.7 µM) | inactive | 14 mm | 12.5 µg/mL (≈ 23.7 µM) | 17 mm | 12.5 µg/mL (≈ 23.7 µM) | 15 mm | 25 µg/mL (≈ 47.5 µM) | inhibition zone (IZ) [5]: 13 mm; inhibition zone (IZ) [6]: 11 mm; Activity [13]: inactive; inhibition zone (IZ) [14]: 15 mm; MIC [14]: 12.5 µg/mL (≈ 23.7 µM); inhibition zone (IZ) [15]: 13 mm; MIC [15]: 12.5 µg/mL (≈ 23.7 µM) |
| Cc1ccc2c(COc3cccc(OCc4cc(=O)oc5cc(C)ccc45)c3)cc(=O)oc2c1 | 16 mm | 12.5 µg/mL (≈ 27.5 µM) | inactive | 12 mm | 25 µg/mL (≈ 55 µM) | 15 mm | 25 µg/mL (≈ 55 µM) | > 100 µg/mL | > 100 µg/mL | 14 mm | 12.5 µg/mL (≈ 27.5 µM) | 16 mm | 12.5 µg/mL (≈ 27.5 µM) | inactive | 13 mm | 12.5 µg/mL (≈ 27.5 µM) | 14 mm | 25 µg/mL (≈ 55 µM) | 15 mm | 25 µg/mL (≈ 55 µM) | Activity [13]: inactive; inhibition zone (IZ) [14]: 17 mm; MIC [14]: 12.5 µg/mL (≈ 27.5 µM); inhibition zone (IZ) [15]: 8 mm; MIC [15]: 25 µg/mL (≈ 55 µM) |
| O=c1cc(COc2cccc(O)c2)c2ccc3ccccc3c2o1 | 13 mm | 25 µg/mL (≈ 78.5 µM) | inactive | 10 mm | 25 µg/mL (≈ 78.5 µM) | 13 mm | 25 µg/mL (≈ 78.5 µM) | 25 µg/mL (≈ 78.5 µM) | 25 µg/mL (≈ 78.5 µM) | 12 mm | 25 µg/mL (≈ 78.5 µM) | 17 mm | 12.5 µg/mL (≈ 39.3 µM) | inactive | 14 mm | 12.5 µg/mL (≈ 39.3 µM) | 19 mm | 6.25 µg/mL (≈ 19.6 µM) | 16 mm | 25 µg/mL (≈ 78.5 µM) | inhibition zone (IZ) [5]: 12 mm; inhibition zone (IZ) [6]: 13 mm; Activity [13]: inactive; inhibition zone (IZ) [14]: 15 mm; MIC [14]: 12.5 µg/mL (≈ 39.3 µM); inhibition zone (IZ) [15]: 13 mm; MIC [15]: 12.5 µg/mL (≈ 39.3 µM) |
